The values that follow come from ChEMBL document CHEMBL1806441, “Discovery and synthesis of a new class of opioid ligand having a 3-azabicyclo[3.1.0]hexane core. An example of a 'magic methyl' giving a 35-fold improvement in binding” (Bioorg Med Chem Lett, 2011).

Calls of active or inactive are those of the source. The calls are words filed in the database; no cut-off is given here.

Data set [1] has as its target Mu-type opioid receptor (Homo sapiens, UniProt P35372). Kind of data set: Displacement of [3H]DAMGO from human mu opioid receptor. (In a radioligand displacement assay an active substance lowers the binding of a labelled ligand.)
The nature of data set [2]: Binding affinity to dog mu opioid receptor. Set-up: species or system Canis lupus familiaris.
Data set [3] is described as follows: Binding affinity to dog kappa opioid receptor. Further details: species or system Canis lupus familiaris.
The nature of data set [4]: Binding affinity to dog delta opioid receptor. Set-up: species or system Canis lupus familiaris.
Data set [5] deals with Mu-type opioid receptor (Cavia porcellus, UniProt P97266). Kind of data set: Antagonist activity at mu opioid receptor in guinea pig longitudinal muscle myenteric plexus assessed as inhibition of DAMGO-induced contraction after 10 mins. The conditions noted are these: read-out: pA2 (converted). Format: functional.
For the next data set, the system named is Mus musculus. Kind of data set: Inhibition of morphine-induced antinociception in ICR mouse assessed as antagonism of morphine response to heat-induced tail flick at 10 mg/kg, sc preincubated for 15 mins before the addition of morphine assessed after 30 mins. It counts as functional. The conditions noted are these: route subcutaneous.
The next data set concerns CHO. Kind of data set: Genotoxicity in CHO cells by micronucleus assay. It counts as toxicity, cell-based, Cricetulus griseus. Conditions: chinese hamster.
In another data set the test system is Canis familiaris. The data set is described as follows: Antipruritic activity in dog with flea allergy dermatitis at 2 mg/kg, po upto 12 hrs. It counts as functional, organism-based. Further details: dose 2 mg/kg. The conditions noted are these: Canis lupus familiaris.
The target in another data set is T1, Cytochrome P450 2D15 (Canis lupus familiaris, UniProt Q29473).
T1 sequence (Q29473 whole entry): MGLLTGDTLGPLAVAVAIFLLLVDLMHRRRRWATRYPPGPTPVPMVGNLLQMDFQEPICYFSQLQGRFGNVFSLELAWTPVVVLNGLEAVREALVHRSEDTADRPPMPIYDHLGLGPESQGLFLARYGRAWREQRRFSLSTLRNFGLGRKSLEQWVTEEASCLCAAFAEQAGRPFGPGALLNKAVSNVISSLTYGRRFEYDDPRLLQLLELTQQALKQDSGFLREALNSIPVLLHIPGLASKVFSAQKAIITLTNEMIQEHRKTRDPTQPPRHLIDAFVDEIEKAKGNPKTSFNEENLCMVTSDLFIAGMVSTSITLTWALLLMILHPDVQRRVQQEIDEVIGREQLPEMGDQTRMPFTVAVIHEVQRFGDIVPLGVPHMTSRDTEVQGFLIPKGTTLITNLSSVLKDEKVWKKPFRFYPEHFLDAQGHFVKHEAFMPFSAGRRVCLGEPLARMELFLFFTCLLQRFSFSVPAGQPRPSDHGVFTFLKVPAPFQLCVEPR
Kind of data set: Inhibition of dog CYP2D15. Format: ADME.

Chain of Mu-type opioid receptor (Homo sapiens, UniProt P35372) (P35372 whole entry): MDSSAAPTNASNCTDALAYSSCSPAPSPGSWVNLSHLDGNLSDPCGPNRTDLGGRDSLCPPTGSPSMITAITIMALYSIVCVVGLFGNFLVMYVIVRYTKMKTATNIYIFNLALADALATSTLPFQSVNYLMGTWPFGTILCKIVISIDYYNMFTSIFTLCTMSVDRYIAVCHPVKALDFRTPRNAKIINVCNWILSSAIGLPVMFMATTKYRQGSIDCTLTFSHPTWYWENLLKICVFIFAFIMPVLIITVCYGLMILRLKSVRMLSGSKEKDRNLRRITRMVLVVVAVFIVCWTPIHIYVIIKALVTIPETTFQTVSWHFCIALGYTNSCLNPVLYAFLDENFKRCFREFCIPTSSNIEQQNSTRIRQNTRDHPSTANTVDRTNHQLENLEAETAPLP
Chain of Mu-type opioid receptor (Cavia porcellus, UniProt P97266) (P97266 whole entry): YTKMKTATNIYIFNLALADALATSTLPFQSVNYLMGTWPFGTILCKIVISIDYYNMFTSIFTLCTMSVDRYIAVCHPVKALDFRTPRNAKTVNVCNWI

`CS(=O)(=O)Nc1cccc([C@H]2[C@@H]3CN(CCCc4ccccc4)C[C@@H]32)c1`: the Ki – broadly, the equilibrium dissociation constant of an inhibitor or competing ligand from its target – on Mu-type opioid receptor [1] is 168 nM; in [2], 379 nM; in data set [3], 1580 nM; in data set [4] it was over 10000 nM.

For `C[C@]1(c2cccc(NS(C)(=O)=O)c2)[C@@H]2CN(CCCc3ccccc3)C[C@@H]21`, the inhibition constant Ki was determined as 4.79 nM at Mu-type opioid receptor [1], 4.1 nM in [2], 94 nM in [3] and 183 nM in data set [4]. The Kb at Mu-type opioid receptor [5] is 10.7 nM. For the same molecule, the inhibition in vivo (as a rule, the drop in the measured response relative to a control, in per cent) at 10 mg/kg with Mus musculus was 89%. Further, the Activity result in the data set on CHO is recorded as “Non-toxic”. Also, the result with Canis familiaris was Active. In addition, the “inhibition (INH)” value against Cytochrome P450 2D15 is “Active”.
